The record followed here is PMC9606187, “Dual HDAC/BRD4 Inhibitors Relieves Neuropathic Pain by Attenuating Inflammatory Response in Microglia After Spared Nerve Injury” (Neurotherapeutics, 2022).

Assay [1] has as its target T1, Recombinant Human Bromodomain containing protein 4, bromodomain 1 (BRD4-BD1) (Homo sapiens, UniProt O60885).
T1 construct: bromodomain 1 (aa 44–170); purchased Reaction Biology (RBC) RD-11–140; host or cells: E. coli
Briefly: AlphaScreen bromodomain binding assay (Reaction Biology), BRD4-1. As to the method: The reader assay is a binding assay using AlphaScreen technology […] assay and was performed by Reaction Biology (www.reactionbiology.com). The biotinylated peptide binding to the reader domain of His-tagged protein is monitored by the singlet oxygen transfer from the Streptavidin-coated donor beads to the AlphaScreen Ni-chelate acceptor beads.
Reaction buffer: 50 mM Hepes, pH7.5, 100 mM NaCl, 0.05% CHAPS, 0.1% BSA, and 1% DMSO (the final DMSO concentration may differ depending on compound stock and test concentrations).
Bromodomain: BRD4-1: RBC Cat# RD-11–140: Recombinant Human Bromodomain containing protein 4, bromodomain 1 (aa 44–170; Genbank Accession # NM_058243), expressed in E. coli with N-terminal His-tag. MW = 17.8 kDa; BRD4-2: RBC Cat# RD-11–141: Recombinant Human Bromodomain containing protein 4, bromodomain 2 (aa 349–460;Genbank Accession # NM_058243), expressed in E. coli with N-terminal His-tag. MW = 15.7 kDa. Ligand (C-term-Biotin): Histone H4 peptide (1–21) K5/8/12/16Ac-Biotin. Detection beads: PerkinElmer: Donor beads: Streptavidin-coated donor beads; Acceptor beads: AlphaScreen Ni acceptor beads.
Reaction procedure: • Deliver 2.5X BRD in wells of reaction plate except No BRD control wells. Add buffer instead. • Deliver compounds in 100% DMSO into the BRD mixture by Acoustic technology (Echo550; nanoliter range). […]

Assay [2] concerns MAPK p38 (phosphorylated). Briefly: Western blot of lumbar spinal cord, p-p38. The assay is classed as in vivo, mice. The following applies: SNI ipsilateral side, day 7 and 14. On the procedure:
(§1) The lumbar spinal cord was removed 7 and 14 days after surgery and 90 min after the intranasal administration of SUM52, corresponding to the peack of the effect. Samples (n = 4 for groups) were homogenized in a homogenization buffer and processed as previously described. Protein samples (40 µg of protein/sample) were separated on 10% SDS-PAGE and transferred onto nitrocellulose membranes (120 min at 100 V) using standard procedures. Membranes were blocked in PBST (PBS containing 0.1% Tween) containing 5% nonfat dry milk for 120 min. […] Blots were then extensively washed and developed using enhanced chemiluminescence detection system (Pierce, Milan, Italy) and signal intensity (pixels/mm^2) quantified (ImageJ, NIH). […] For each sample, the signal intensity was normalized to that of total protein stained by Ponceau S and the acquired images were quantified using Image Lab software. […]

For a further assay, the system named is naïve mice. Briefly: Hot plate test, acute thermal pain in naïve mice. The assay is classed as in vivo. The text has this:
Mice were randomly assigned to each treatment group. To evaluate the pharmacological profile of SUM35 (N-hydroxy-6-(1-methyl-6-phenyl-4H-benzo[f][1,2,4]triazolo[4,3-a][1,4]diazepin-8-yl)hex-5-ynamide), SUM52 ((S)-N-hydroxy-7-(2-(1-methyl-6-phenyl-4H-benzo[f][1,2,4]triazolo[4,3-a][1,4]diazepin-4-yl)acetamido)heptanamide) (Fig. 1F), synthesized in the laboratory of Prof. Maria Novella Romanelli, iBET762 (molibresib; (4S)-6-(4-Chlorophenyl)-N-ethyl-8-methoxy-1-methyl-4H-[1,2,4]triazolo[4,3,a][1,4] benzodiazepine-4-acetamide, and SAHA (vorinostat; suberoylanilide hydroxamic acid) (Sigma-Aldrich, Italy) were administered 15 min before the tests. Drugs were dissolved in 5% DMSO. Drug concentrations were prepared in such a way that the necessary dose could be administered in a volume of 10 µl per mouse by intranasal (i.n.) administration. The experimental protocol to test the effect of treatments on behavioral and in vitro tests included 3 control groups: untreated, vehicle (5% DMSO), and saline. A representative figure of the experimental protocol in naïve (C) and SNI (F) mice has been inserted in Supplementary Fig. 1.
For i.n. administration, mice were slightly anesthetized by 2% isoflurane inhalation and placed in a supine position. A 5 μl aliquot of solution (treatments or vehicle) was slowly dropped alternatively to each nostril with a micropipette tip.
Animals were habituated to the testing environment daily for at least 2 days before baseline testing. To evaluate onset and progression of pain hypersensitivity, neuropathic mice were monitored by measuring nociceptive responses every 30 min for 3 h before surgery or 3, 7, 10, and 14 days after nerve surgery. Experiments were performed on post-surgery day 7 and 14 when the pain hypersensitivity was well established. Each mouse served as its own control, the responses being measured both before and after surgery. All testing was performed with a blind procedure.

For another assay, the system named is IL-1ß. Briefly: Western blot of lumbar spinal cord, IL-1ß. The assay is classed as in vivo, mice. Conditions: SNI ipsilateral side, day 7 and 14. On the procedure:
as §1

The test system of a further assay is SNI mice. Kind of assay: Hargreaves' plantar test, thermal allodynia in SNI mice. It counts as in vivo.

SMILES strings stand for the structures.

Protocol for SNI mice: For i.n. administration, mice were slightly anesthetized by 2% isoflurane inhalation and placed in a supine position [30]. A 5 μl aliquot of solution (treatments or vehicle) was slowly dropped alternatively to each nostril with a micropipette tip.
Behavioral testing was performed before surgery to establish a baseline for comparison with post-surgical values.
Thermal nociceptive threshold was measured using Hargreaves’ device, as described [33]. Nociceptive response for thermal sensitivity was expressed as thermal paw withdrawal latency in seconds. All determinations were averaged for each animal.

On to `Cc1nnc2n1-c1ccccc1C(c1ccccc1)=N[C@H]2CC(=O)NCCCCCCC(=O)NO` [SUM52, (S)-N-hydroxy-7-(2-(1-methyl-6-phenyl-4H-benzo[f][1,2,4]triazolo[4,3-a][1,4]diazepin-4-yl)acetamido)heptanamide], for which the IC50 in assay [1] was 758 nM. Moreover, the “phosphorylation of MAPK p38” value in assay [2] is “drastically reduced”. The “thermal antinociceptive effect (hot plate)” value with naïve mice (5 µM i.n., 90 min after administration) was “ineffective”; in the assay with naïve mice (50 µM i.n., 90 min after administration), “trend toward an increase in the pain threshold”; with naïve mice (100 µM i.n., normalized to control, compared to SUM35 100 µM) it was “significant analgesic effect”; with naïve mice (doses higher than 100 µM (up to 500 µM) i.n.), “progressive reduction of efficacy”. The “time at which the antinociceptive effect disappeared (hot plate)” value in the assay on naïve mice (100 µM i.n.) turned out to be 120 min. Moreover, the “time of peak of antinociceptive activity (hot plate)” value in the assay with naïve mice (100 µM i.n.) is reported as 90 min. Further, the “thermal antinociceptive effect (hot plate), whole dose range” value in the assay with naïve mice (5 to 500 µM i.n.) is “showed thermal antinociceptive effects”. Moreover, the IL-1ß expression entry with IL-1ß is reported as “drastically reduced”. The “thermal antiallodynic activity, ipsilateral side” value is recorded as “ineffective” in the assay with SNI mice (10 µM i.n., 90 min); “attenuated the SNI-induced pain hypersensitivity” with SNI mice (50 µM i.n., vs before treatment values); “attenuated the SNI-induced pain hypersensitivity” in the assay with SNI mice (75 µM i.n., vs before treatment values); “the effect was significantly reduced” in the assay with SNI mice (100 µM i.n.). Also, the “duration of effect on thermal allodynia compared with SUM35” value in the assay on SNI mice (SUM52 50 µM vs SUM35 100 µM) is given as “more prolonged affect”. Moreover, the “efficacy in attenuating thermal allodynia compared with SUM35” value in the assay on SNI mice (SUM52 50 µM vs SUM35 100 µM, normalized to control group, day 7 and 14) is listed as “comparable efficacy”. In addition, in the assay on SNI mice (contralateral (uninjured) side of SNI mice), the “thermal analgesic effect in the contralateral side” value is given as “absence”. In addition, the “thermal antiallodynic efficacy compared with SAHA + iBET762 combination” value in the assay with SNI mice (time-course comparison, combination i-BET762 10 µg, SAHA 3 µg) is on record as “comparable efficacy”.
